From patent US20120282676A1, “Compositions and Methods for Enhancing Lipid Production in Marine Microalgae” (Old Queens, priority 2011, published 2012)

Experiments:
[1] = tested on: Phaeodactylum tricornutum; assay: Growth of P. tricornutum cultures in different nitrogen regimes (cell densities, Coulter counter); format: cell-based; conditions: relative to the control (NO3+Mo)
Description: This was also the reason to perform all experiments in artificial medium. […] During the period of acclimation the cultures were maintained at 18° C., under continuous light using liner cool fluorescent lamps emitting white light at 300 μmol quanta·m^-2·s^-1, and 0.2 μm filtered air bubbling. Periodic dilutions with fresh media were also executed to main the cells in exponential phase of growth. […] The light intensity and temperature were maintained as described above. After 3 days (72 h) of growth samples were collected and processed for further analyses (described bellow). Experiments were performed at least in triplicate. The cellular densities were monitored with a Coulter counter multisizer 3 (Beckman Coulter Inc, Fullerton, Calif., USA).

[2] = tested on: Phaeodactylum tricornutum; assay: Fatty acids extraction and analysis (FAME, GC-FID); format: cell-based; conditions: for more fatty acid per cell than the control: relative to NO3− replete cells (control)
Description: Fatty acid methyl esters (FAME) extraction and methylation was based on a method developed by Rodriguez-Ruiz et al., 1998. […] The vials were sealed with a Teflon-lined cap and boiled in a water-bath for 1 h. After incubation the vials were cooled to room temperature and 1 ml of milliQ water was added to each sample. Samples were vortexed and centrifuged (5 min, 3000 rpm) to allow phase separation and the top […] phases were transferred with glass-pipettes to GC vials with Teflon-lined caps (Fisher Scientific). FAME analyses were performed in a gas-chromatographer (GC 2010 Shimadzu, Japan) equipped with a TR-FAME (0.25 μm×60 m) column (Thermo electron corporation, USA) and a flame ionization detector (FID). Helium was used as the carrier gas at 26 psi. The injector and detector temperatures were 240° C. and 250° C. respectively. The time-oven temperature program was: 140° C. (5 min) increasing up to 240° C. at 4° C.·min^-1. FAMEs were identified by reference to authentic standards (SupelcoTM 37 component FAME, Sigma-Aldrich) processed and analyzed under the same conditions.

[3] = tested on: nitrate reductase (NR) protein; assay: NR western-blot; format: cell-based, Phaeodactylum tricornutum; conditions: FIG. 2
Description: Protein concentrations were determined with the bicinchoninic acid method (BCA, Pierce). […] Blots were probed for 1 h with anti-NR assimilatory (1:500) purchased from Agrisera (part no. AS08-310). Subsequently, an HRP-conjugated polyclonal goat anti-rabbit IgC antibody (Pierce, 1:10000) was used followed by chemifluorescence detection (Amersham™ ECL Plus, RPN2132). Image acquisition was performed with a molecular imager XR+ system (BIORAD, USA).

[4] = tested on: Phaeodactylum tricornutum; assay: Lipid body imaging (BODIPY, epifluorescence microscopy); format: cell-based; conditions: BODIPY staining, FIG. 4
Description: Intracellular lipid bodies were stained with 10 μg·ml^-1 BODIPY (4,4-difluoro-3a, 4a-diaza-s-indacene) probe (D-3922, Molecular Probes, Invitrogen, USA). Cells were subsequently observed with an inverted epifluorescence microscope Olympus IX71 (Olympus, Japan) equipped with a mercury X-CITE 120 lamp (EXFO, Canada), using the 482/536 nm excitation/emission filter. Images were acquired with a […] high-speed monochromatic cooled CCD camera system and IPLab for Mac (v3.9) for image processing and analysis.

[5] = tested on: Phaeodactylum tricornutum; conditions: preliminary LC-MS analyses, FIG. 6
From the text: FIG. 6. Liquid-chromatography mass-spectrometry (LC-MS) plot representing the relative content of triacylglycerides (TAG) species between cells growing with nitrate or ammonium as nitrogen sources. Total lipids from P. tricronutum cells growing with nitrate or ammonium as nitrogen source (from the experiments described in the main text) were extracted with the Bligh-Dyer method (Bligh and Dyer) and analysed by liquid-chromatography mass-spectrometry (LC-MS).

[6] = tested on: Dunaliella terciolecta
[7] = tested on: Phaeodactylum tricornutum; assay: Metabolite profiling (LC-MS/MS); format: cell-based; conditions: W-mediated NR inactivation of NO3− grown cells
Description: Metabolite profiles were obtained via the method described by Bennette et al. (2010). Cells were quenched via rapid filtration of 14.3 million cells followed by immediate transfer of filters to 1.8 mL of 80:20 methanol:water at −20° C. in 35×10 mm Petri dishes. Filters were incubated at −20° C. for 15 minutes and scraped clean of cells in the extraction solvent. The 1.8 mL of extraction solvent with cells was transferred to 2 mL eppendorf tubes, followed by a 0.25 mL 80:20 methanol:water at −20° C. wash of the filter to collect remaining quenched cell material. The eppendorf tubes were spun at 4° C., and supernatant was collected. To the cell pellet, 100 μL 80:20 methanol:water at −20° C. was added, vortexed, incubated at −20° C. for 15 minutes, and pelletted. The 100 μL was combined with the original supernatant, and 50 μL transferred to GC vials. […] Standards for each metabolite, run with sample background, were used for quantification. The column used was a Synergi 2.5μ hydro RP 100A, size 100×2 mm (Phenomonex, Torrance, Calif., USA).

[8] = tested on: Selenastrum capricornutum; conditions: sodium tungsten in small concentration (≦400 μM); Strigul et al. 2009; cited from earlier work

SMILES | decrease of growth rate [1] [%] | more fatty acid per cell than the control ([2]; 3 days) [%] | NR protein band (approximately 100 kDa) in western-blot [3] | number of lipid bodies per cell [4] | TAG species relative to NO3− grown cells [5] | more total fatty acid than with NO3− ([6]; D. terciolecta, NH4+ as nitrogen source) [%] | Fatty acids cell^−1 (total fatty acid) ([2]; P. tricornutum, 3 days, mean ± SD, n ≧ 3) [pg] | higher rate of fatty acid accumulated per unit volume ([2]; W added to NH4+ growing cultures, compared to all the other situations, FIG. 1B) | glutamate and glutamine levels, share of control levels [7] | average growth rate ([6]; D. terciolecta, W in conjunction with NH4+) | more fatty acid per unit volume than nitrate-grown cultures ([6]; D. terciolecta, W in conjunction with NH4+, after 3 days, FIG. 7) [%] | higher rates of lipid production per unit biomass than in controlled conditions ([6]; tungsten in combination with ammonium, organism not given) [%] | effect on growth [8]
Cl.N [NH4+, NH4Cl] | 10 | ≥ 40 | weak band | very high numbers | all TAG species of P. tricornutum NH4+ grown cells increase | 13 | – | – | – | – | – | – | –
[Na+].[Na+].[O]=[W](=[O])([O-])[O-] [W, sodium tungsten] | – | 40 | – | – | – | – | 3.99 ± 0.24 | over 30% | about 10% | increased the average growth rate | 88 | 87 | stimulated growth
